Assay results: PubChem BioAssay (NCI)
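Results reflect a 48-hour exposure of cells in 96-well plates to compound at five concentrations. At the GI50, growth is halved. TGI: concentration producing complete growth inhibition.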

Tests used:
Assay in all cases: NCI tumour cell line growth inhibition, 48 h
[1] = test system: DMS 114 small cell lung
[2] = test system: KM20L2 colon
[3] = test system: SNB-78 CNS
[4] = test system: DLD-1 colon
[5] = test system: RPMI-8226 leukemia
[6] = test system: M19-MEL melanoma
[7] = test system: HOP-18 NSCLC
[8] = test system: DMS 273 small cell lung
[9] = test system: LXFL 529 NSCLC
[10] = test system: XF 498 CNS
[11] = test system: NCI-H23 lung
[12] = test system: SK-MEL-2 melanoma
[13] = test system: NCI/ADR-RES ovarian
[14] = test system: T-47D breast
[15] = test system: MDA-N

SMILES	TGI [5] [µM]	TGI [11] [µM]	TGI [12] [µM]	TGI [13] [µM]	TGI [14] [µM]	TGI [15] [µM]	further results
C[N+]1(C)C/C(=C\c2ccc(O)cc2)C(=O)/C(=C/c2ccc(O)cc2)C1	> 100	–	–	–	–	–	TGI [1]: > 100 µM; TGI [2]: > 100 µM; TGI [3]: > 100 µM; TGI [4]: > 100 µM; TGI [6]: > 100 µM; TGI [7]: > 100 µM; TGI [8]: > 100 µM; TGI [9]: > 100 µM
NC(=S)N/N=C1\CC(c2ccccc2)Nc2ccccc21 (configuration not stated)	> 100	> 100	–	–	–	–	TGI [1]: 63.4 µM; TGI [2]: 47.2 µM; TGI [10]: 35.2 µM; TGI [3]: > 100 µM; TGI [4]: > 100 µM; TGI [6]: > 100 µM; TGI [7]: > 100 µM; TGI [8]: > 100 µM; TGI [9]: > 100 µM
COc1ccc(OC)c([N+](=O)[O-])c1-c1nc2sc(C)c(C)n2c1/C=N/N=C(N)N	89.9	> 100	40.5	> 100	61.2	–	–
Nc1ccc(S(=O)(=O)NCCS(=O)(=O)O)cc1	–	> 100	> 100	> 100	–	> 100	–
CC(=O)C(N=NC1CCC(S(=O)(=O)NB2N=CS2)CC1)C(=O)Nc1ccccc1C (configuration not stated)	> 100	28.9	33.3	–	–	–	TGI [1]: 26.3 µM; TGI [2]: 29.6 µM; TGI [10]: 33.6 µM; TGI [3]: 67.1 µM; TGI [4]: 35.4 µM; TGI [6]: 34.1 µM; TGI [7]: 80 µM; TGI [8]: 48 µM; TGI [9]: 27.6 µM
CC(=O)c1c(C)cc2cccc(OC3OC(CO)C(O)C(O)C3O)c2c1O (configuration not stated) (tested in a mixture with another compound)	> 100	> 100	> 100	> 100	> 100	> 100	–
COc1cc(O)c2c(=O)c(OC)c(-c3ccc(OC)c(OC)c3)oc2c1.[Zn+2]	> 100	–	–	> 100	> 100	> 100	GI50 [13]: 14.9 µM; GI50 [14]: 5.7 µM
C=C(C[C@@H](O)[C@H](C)NC(=O)OCc1ccccc1)C(=O)OC(C)(C)C	> 100	> 100	> 100	> 100	67.3	> 100	–
CCCCCCCCc1ccc(CCC(N)(CO)CO)cc1	–	–	3.76	–	3.44	–	GI50 [12]: 2.06 µM; GI50 [14]: 1.78 µM
C[N+]1(c2ccccc2)C=C(c2ccccc2)SC1=S (configuration not stated)	> 100	> 100	> 100	> 100	8.63	–	–
O=S(=O)([O-])[O-].[Fe+2].[OH2+]c1c(Cl)cc(Cl)cc1/C=N/Nc1ccccn1	6.12	2.64	–	–	–	–	TGI [1]: 0.595 µM; TGI [2]: 3.66 µM; TGI [4]: 1.8 µM; TGI [6]: 4.86 µM; GI50 [7]: 0.55 µM; TGI [7]: 1.93 µM; TGI [9]: 1.39 µM
CC(=O)Oc1cc(/C=C/c2ccc(O)cc2)cc(OC(C)=O)c1	25.4	53.9	> 100	51.9	> 100	–	–
Cc1ncc(COP(=O)(O)O)c(C)c1O	–	> 100	> 100	> 100	> 100	> 100	–
Cc1cccc(/C=C2/C(=O)Nc3ccccc32)n1	46.5	28.9	36.4	53.2	34.2	–	–
